Test results published in ChEMBL document CHEMBL4507319 (2021).

Experiments:
Conditions in all cases: Compound concentration 1000.0 nM
[1] = system: Tyrosine-protein kinase ABL1 (Homo sapiens), P00519 [F317I]
[2] = target: Bone morphogenetic protein receptor type-1B (Homo sapiens) (UniProt O00238)
[3] = target: Casein kinase I isoform alpha-like (Homo sapiens) (UniProt Q8N752)
[4] = target: T1, Discoidin domain-containing receptor 2 (Homo sapiens) (UniProt Q16832)
T1 sequence (whole entry): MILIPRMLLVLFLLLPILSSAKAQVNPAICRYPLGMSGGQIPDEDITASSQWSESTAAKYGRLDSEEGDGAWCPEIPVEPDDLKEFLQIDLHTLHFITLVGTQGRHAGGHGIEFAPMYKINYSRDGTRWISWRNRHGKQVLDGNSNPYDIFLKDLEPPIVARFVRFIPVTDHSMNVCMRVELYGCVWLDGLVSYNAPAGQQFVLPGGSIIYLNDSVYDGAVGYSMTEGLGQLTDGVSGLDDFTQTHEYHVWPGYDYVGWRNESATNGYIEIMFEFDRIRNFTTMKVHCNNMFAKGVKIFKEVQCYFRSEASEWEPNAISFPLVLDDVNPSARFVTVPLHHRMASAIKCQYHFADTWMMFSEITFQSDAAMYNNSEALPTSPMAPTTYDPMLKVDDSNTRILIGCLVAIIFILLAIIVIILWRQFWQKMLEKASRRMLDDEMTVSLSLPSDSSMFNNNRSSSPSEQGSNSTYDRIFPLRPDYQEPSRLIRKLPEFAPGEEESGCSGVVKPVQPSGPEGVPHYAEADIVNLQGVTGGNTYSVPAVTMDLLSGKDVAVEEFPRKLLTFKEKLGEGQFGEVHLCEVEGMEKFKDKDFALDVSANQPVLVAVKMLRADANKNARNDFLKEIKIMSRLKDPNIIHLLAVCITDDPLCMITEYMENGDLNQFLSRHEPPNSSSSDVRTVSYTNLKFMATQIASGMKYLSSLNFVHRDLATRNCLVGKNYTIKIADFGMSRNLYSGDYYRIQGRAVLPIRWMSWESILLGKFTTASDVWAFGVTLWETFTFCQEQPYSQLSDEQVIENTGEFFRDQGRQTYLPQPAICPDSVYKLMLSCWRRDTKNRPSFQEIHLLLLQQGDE

[5] = target: T2, Ephrin type-A receptor 8 (Homo sapiens) (UniProt P29322)
T2 sequence (whole entry): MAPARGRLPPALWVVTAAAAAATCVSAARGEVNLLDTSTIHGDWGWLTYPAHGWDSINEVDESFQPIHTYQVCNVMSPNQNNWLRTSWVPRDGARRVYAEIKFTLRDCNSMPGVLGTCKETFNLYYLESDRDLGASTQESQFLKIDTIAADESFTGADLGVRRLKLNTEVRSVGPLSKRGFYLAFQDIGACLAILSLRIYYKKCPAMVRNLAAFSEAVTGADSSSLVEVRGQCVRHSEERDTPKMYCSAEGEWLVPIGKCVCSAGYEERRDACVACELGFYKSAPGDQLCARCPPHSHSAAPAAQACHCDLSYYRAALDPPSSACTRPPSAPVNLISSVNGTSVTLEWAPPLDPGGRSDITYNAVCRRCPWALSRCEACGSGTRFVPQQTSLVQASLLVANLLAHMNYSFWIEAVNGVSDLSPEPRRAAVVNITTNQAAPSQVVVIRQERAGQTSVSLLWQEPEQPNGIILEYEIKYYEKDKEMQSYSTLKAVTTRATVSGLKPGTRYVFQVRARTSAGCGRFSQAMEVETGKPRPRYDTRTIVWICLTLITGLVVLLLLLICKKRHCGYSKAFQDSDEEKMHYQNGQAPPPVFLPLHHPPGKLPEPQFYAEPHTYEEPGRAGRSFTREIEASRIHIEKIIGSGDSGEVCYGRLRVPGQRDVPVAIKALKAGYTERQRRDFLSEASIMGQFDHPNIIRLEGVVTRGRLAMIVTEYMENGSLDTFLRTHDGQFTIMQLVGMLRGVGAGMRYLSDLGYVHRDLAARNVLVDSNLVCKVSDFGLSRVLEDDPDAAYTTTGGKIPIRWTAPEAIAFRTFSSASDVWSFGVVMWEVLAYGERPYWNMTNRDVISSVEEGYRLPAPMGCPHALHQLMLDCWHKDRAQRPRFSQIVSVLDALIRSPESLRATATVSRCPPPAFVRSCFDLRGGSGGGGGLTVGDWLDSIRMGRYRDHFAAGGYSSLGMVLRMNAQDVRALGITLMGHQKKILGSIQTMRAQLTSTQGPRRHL

[6] = target: Ephrin type-B receptor 6 (Homo sapiens) (UniProt O15197)
[7] = system: Receptor-type tyrosine-protein kinase FLT3 (Homo sapiens), P36888 [UNDEFINED MUTATION]
[8] = target: Phosphatidylinositol 5-phosphate 4-kinase type-2 gamma (Homo sapiens) (UniProt Q8TBX8)
[9] = target: T3, SNF-related serine/threonine-protein kinase (Homo sapiens) (UniProt Q9NRH2)
T3 sequence (whole entry): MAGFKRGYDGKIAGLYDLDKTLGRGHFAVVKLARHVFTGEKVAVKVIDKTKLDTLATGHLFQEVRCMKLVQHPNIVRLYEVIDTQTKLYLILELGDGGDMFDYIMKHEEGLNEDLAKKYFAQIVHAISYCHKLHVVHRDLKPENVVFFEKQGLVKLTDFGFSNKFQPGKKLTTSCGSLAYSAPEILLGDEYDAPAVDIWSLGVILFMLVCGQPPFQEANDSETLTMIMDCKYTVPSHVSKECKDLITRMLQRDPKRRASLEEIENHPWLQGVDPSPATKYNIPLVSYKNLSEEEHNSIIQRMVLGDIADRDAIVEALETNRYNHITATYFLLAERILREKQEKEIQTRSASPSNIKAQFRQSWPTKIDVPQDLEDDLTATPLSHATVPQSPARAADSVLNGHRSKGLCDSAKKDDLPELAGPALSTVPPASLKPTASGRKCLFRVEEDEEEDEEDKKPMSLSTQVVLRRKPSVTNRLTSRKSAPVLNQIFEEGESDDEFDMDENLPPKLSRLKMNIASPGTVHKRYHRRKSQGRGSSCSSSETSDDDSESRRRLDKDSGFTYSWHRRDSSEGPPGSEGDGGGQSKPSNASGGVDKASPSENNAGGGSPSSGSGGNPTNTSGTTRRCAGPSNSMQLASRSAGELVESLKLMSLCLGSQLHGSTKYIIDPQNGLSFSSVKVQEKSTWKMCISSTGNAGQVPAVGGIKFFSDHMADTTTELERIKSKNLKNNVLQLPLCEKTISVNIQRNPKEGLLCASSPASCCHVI

[10] = target: Tyrosine-protein kinase Srms (Homo sapiens) (UniProt Q9H3Y6)
Tyrosine-protein kinase Srms (Homo sapiens), sequence (Q9H3Y6 whole entry): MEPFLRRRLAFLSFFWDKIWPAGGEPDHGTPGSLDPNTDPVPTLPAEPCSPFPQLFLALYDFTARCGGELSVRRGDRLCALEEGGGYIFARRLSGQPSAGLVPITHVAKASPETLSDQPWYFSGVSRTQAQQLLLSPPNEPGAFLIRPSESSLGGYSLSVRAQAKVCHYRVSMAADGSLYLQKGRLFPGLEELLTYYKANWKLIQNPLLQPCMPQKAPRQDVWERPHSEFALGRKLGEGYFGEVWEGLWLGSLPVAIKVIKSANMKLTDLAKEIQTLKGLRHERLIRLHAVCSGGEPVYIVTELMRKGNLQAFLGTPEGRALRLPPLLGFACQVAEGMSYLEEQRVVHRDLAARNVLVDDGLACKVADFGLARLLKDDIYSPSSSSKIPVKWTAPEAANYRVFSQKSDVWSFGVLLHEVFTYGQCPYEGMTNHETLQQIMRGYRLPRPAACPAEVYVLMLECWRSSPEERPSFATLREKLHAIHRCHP

Casein kinase I isoform alpha-like (Homo sapiens), sequence (Q8N752 whole entry, the tested form may be a part, canonical isoform): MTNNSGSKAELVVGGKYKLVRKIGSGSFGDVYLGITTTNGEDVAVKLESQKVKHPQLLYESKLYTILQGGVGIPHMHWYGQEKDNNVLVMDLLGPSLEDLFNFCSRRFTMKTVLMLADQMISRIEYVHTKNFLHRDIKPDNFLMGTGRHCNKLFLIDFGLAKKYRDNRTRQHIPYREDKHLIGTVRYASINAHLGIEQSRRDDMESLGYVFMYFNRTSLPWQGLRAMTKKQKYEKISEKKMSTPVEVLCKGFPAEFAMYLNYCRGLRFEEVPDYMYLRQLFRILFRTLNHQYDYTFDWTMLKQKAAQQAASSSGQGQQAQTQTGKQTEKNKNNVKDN
Bone morphogenetic protein receptor type-1B (Homo sapiens), sequence (O00238 whole entry, canonical isoform): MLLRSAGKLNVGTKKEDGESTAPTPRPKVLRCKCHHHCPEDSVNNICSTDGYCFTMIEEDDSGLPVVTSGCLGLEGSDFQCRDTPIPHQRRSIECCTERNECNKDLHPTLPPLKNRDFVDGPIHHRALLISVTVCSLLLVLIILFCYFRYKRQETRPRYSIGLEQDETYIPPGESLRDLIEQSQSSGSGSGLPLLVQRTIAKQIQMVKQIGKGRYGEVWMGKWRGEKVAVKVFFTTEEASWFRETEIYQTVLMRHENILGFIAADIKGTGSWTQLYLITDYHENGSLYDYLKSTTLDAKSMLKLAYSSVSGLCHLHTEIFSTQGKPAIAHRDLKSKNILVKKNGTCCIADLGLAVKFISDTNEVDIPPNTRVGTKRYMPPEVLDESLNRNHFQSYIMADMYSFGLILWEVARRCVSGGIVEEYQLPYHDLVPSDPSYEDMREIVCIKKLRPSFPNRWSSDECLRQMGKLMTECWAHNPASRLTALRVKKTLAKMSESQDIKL
Phosphatidylinositol 5-phosphate 4-kinase type-2 gamma (Homo sapiens), sequence (Q8TBX8 whole entry): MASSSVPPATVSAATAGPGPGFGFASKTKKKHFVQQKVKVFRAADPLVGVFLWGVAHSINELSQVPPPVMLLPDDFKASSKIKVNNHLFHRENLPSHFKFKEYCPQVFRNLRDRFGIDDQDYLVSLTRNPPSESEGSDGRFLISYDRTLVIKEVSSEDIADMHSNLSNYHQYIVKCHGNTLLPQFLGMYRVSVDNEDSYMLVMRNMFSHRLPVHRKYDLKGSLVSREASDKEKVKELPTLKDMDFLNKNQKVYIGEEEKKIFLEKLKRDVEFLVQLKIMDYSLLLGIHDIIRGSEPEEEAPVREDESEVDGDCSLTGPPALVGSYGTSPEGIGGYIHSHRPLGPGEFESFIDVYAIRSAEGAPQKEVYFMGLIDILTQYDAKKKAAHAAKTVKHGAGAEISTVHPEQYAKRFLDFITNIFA
Tyrosine-protein kinase ABL1 (Homo sapiens), P00519 [F317I], sequence (P00519 whole entry F317I): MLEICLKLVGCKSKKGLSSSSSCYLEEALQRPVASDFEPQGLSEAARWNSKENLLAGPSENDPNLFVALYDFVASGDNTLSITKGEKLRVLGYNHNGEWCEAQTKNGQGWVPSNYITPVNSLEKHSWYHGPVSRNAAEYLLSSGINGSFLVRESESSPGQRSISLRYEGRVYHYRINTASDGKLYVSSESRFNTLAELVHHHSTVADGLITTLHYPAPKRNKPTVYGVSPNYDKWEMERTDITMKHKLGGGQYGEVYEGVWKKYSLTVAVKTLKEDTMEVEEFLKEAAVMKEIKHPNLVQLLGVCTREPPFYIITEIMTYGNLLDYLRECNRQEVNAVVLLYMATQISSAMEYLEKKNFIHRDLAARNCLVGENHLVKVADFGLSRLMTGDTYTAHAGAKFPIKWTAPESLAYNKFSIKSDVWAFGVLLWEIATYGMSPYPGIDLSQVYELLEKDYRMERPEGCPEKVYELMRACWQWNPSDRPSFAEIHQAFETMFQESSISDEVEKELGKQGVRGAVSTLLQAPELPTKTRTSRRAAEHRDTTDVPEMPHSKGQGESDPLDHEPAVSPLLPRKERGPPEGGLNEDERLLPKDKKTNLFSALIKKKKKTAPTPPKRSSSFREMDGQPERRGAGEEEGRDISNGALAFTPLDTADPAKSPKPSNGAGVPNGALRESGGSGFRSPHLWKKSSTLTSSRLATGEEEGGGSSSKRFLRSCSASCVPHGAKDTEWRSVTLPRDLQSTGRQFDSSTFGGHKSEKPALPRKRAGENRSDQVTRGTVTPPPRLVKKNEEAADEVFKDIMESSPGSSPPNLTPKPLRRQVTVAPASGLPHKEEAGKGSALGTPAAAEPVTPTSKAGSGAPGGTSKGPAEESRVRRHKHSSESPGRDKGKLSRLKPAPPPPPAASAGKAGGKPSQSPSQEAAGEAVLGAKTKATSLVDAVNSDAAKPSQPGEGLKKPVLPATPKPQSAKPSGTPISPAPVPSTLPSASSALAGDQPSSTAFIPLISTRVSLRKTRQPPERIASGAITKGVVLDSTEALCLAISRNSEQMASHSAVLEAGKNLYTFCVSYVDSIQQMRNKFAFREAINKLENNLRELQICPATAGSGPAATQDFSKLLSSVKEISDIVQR
Receptor-type tyrosine-protein kinase FLT3 (Homo sapiens), P36888 [UNDEFINED MUTATION], sequence (P36888 whole entry, looked up, change not shown): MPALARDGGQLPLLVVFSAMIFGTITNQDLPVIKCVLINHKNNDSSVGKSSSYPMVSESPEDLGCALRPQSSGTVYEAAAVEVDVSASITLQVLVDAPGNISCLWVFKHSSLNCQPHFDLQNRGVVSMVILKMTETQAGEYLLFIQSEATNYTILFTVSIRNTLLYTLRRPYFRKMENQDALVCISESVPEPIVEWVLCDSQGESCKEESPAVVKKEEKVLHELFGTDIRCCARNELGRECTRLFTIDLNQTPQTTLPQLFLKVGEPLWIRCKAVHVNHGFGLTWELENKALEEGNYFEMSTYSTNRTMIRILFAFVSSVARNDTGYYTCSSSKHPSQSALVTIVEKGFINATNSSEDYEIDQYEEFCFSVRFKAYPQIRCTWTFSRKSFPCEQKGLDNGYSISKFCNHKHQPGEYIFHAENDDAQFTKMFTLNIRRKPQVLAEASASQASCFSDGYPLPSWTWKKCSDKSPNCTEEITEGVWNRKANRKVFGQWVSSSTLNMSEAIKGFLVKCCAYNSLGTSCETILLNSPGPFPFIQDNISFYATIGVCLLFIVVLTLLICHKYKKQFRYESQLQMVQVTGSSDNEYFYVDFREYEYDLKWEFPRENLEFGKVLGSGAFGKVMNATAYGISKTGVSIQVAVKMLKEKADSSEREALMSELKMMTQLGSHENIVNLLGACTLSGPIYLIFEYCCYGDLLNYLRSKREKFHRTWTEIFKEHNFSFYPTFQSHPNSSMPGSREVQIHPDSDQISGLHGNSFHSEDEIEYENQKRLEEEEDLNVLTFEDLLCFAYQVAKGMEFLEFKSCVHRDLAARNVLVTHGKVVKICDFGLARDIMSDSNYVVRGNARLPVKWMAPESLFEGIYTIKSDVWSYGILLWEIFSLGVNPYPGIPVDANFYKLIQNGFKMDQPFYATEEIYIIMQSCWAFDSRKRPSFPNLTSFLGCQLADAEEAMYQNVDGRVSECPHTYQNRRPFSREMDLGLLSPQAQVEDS
Ephrin type-B receptor 6 (Homo sapiens), sequence (O15197 whole entry): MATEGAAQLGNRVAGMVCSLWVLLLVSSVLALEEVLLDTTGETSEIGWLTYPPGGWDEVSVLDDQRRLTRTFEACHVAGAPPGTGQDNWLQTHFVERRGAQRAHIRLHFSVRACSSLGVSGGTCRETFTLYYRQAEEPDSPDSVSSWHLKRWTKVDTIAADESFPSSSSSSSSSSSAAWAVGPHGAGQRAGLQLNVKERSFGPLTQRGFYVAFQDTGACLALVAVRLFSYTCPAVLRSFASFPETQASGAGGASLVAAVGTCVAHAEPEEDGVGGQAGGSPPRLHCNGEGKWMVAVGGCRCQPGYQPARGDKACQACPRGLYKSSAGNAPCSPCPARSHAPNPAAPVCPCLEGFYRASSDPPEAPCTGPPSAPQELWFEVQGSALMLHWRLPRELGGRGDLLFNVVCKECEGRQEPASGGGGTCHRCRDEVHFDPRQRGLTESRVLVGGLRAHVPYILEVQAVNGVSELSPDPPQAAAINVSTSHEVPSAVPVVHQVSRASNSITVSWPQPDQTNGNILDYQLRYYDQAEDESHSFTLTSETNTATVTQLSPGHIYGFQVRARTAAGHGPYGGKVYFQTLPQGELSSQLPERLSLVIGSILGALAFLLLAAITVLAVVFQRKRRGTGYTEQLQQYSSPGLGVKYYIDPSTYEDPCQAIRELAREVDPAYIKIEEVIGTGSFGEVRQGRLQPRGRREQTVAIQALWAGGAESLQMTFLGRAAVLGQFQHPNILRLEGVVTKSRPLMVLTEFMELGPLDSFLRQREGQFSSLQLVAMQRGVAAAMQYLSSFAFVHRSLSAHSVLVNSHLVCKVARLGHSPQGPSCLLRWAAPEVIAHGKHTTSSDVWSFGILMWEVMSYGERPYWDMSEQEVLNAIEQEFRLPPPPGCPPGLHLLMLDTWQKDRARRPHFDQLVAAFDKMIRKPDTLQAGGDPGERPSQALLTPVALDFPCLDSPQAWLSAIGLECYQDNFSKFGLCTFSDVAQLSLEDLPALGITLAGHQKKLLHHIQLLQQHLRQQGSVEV

SMILES	residual activity [1]	residual activity [2]	residual activity [3]	residual activity [4]	residual activity [5]	residual activity [6]	residual activity [7]	residual activity [8]	residual activity [9]	residual activity [10]
CCc1ccccc1C(=O)Nc1n[nH]c2c(C)c(F)c(C3C(C#N)=C(C)N(C)C(C)=C3C#N)cc12 [BAY-3827]	100%	96%	62%	100%	79%	100%	11%	77%	100%	94%
CC1=C(C#N)C(c2ccc3c(c2)c(NC(=O)c2ccccc2C)nn3C)C(C#N)=C(C)N1 [BAY-974]	78%	91%	97%	86%	100%	81%	96%	92%	100%	57%
